Results: DBAASP
≈ marks a conversion by molar mass, not a printed value.

How the values were obtained:
Experiment in all cases: ≥ marks a high value that may be exact or a test limit, other limits are often not marked, values filed in µg/mL are converted to µM
Pseudomonas aeruginosa = tested on: Pseudomonas aeruginosa
Bacillus subtilis 168 = tested on: Bacillus subtilis 168
Escherichia coli B = tested on: Escherichia coli B
Staphylococcus aureus = tested on: Staphylococcus aureus
[1] = tested on: Candida albicans F7-39/IDE99
[2] = tested on: Candida albicans NCPF 1467
[3] = tested on: Staphylococcus aureus NCTC 10788
[4] = tested on: Staphylococcus aureus ATCC 2592
[5] = tested on: Pseudomonas aeruginosa ATCC 27853
Bacillus subtilis = tested on: Bacillus subtilis
[6] = tested on: Staphylococcus aureus ATCC 43300
[7] = tested on: Pseudomonas aeruginosa PAO1
Escherichia coli ML-35p = tested on: Escherichia coli ML-35p
[8] = tested on: Candida albicans ATCC 2002
[9] = tested on: Escherichia coli NCTC 10418
Listeria innocua = tested on: Listeria innocua
Micrococcus luteus = tested on: Micrococcus luteus
Streptococcus uberis = tested on: Streptococcus uberis
Leuconostoc lactis = tested on: Leuconostoc lactis
Pasteurella multocida = tested on: Pasteurella multocida
Escherichia coli = tested on: Escherichia coli
[10] = tested on: Staphylococcus epidermidis
Bacillus cereus = tested on: Bacillus cereus

Row | SMILES | MIC (Staphylococcus aureus) [µM] | MIC [2] [µM] | MIC [3] [µM] | MIC (Listeria innocua) [µM] | MIC (Micrococcus luteus) [µM] | MIC (Streptococcus uberis) [µM] | MIC (Leuconostoc lactis) [µM] | MIC (Pasteurella multocida) [µM] | MIC (Escherichia coli) [µM] | MIC [10] [µM] | MIC (Bacillus cereus) [µM] | other results
1 | CSCC[C@H](NC(=O)CNC(=O)[C@H](Cc1ccccc1)NC(=O)[C@H](C)N)C(=O)N[C@@H](C)C(=O)N[C@@H](CC(C)C)C(=O)N[C@@H](CCCCN)C(=O)N[C@@H](CC(C)C)C(=O)N[C@@H](CC(C)C)C(=O)N[C@@H](CCCCN)C(=O)N[C@@H](CCCCN)C(=O)N[C@H](C(=O)N[C@@H](CC(C)C)C(N)=O)C(C)C [AFGMALKLLKKVL] | 4.7 (≈ 6.73 µg/mL) |  |  |  |  |  |  |  |  |  |  | MIC (Pseudomonas aeruginosa): 38.3 µM (≈ 54.8 µg/mL); MIC (Bacillus subtilis 168): 1.3 µM (≈ 1.86 µg/mL); MIC (Escherichia coli B): 4.7 µM (≈ 6.73 µg/mL); MIC [1]: 10 µM (≈ 14.3 µg/mL)
2 | CC[C@H](C)[C@H](NC(=O)[C@H](C)NC(=O)[C@@H](NC(=O)[C@@H]1CCCN1C(=O)[C@H](CC(C)C)NC(=O)[C@@H](NC(=O)[C@H](CO)NC(=O)[C@@H](NC(=O)[C@H](C)NC(=O)[C@H](CCSC)NC(=O)[C@H](CCCCN)NC(=O)[C@H](CC(C)C)NC(=O)[C@@H](NC(=O)[C@@H]1CCCN1C(=O)CNC(=O)[C@@H](NC(=O)[C@@H](N)Cc1ccccc1)[C@@H](C)CC)C(C)C)[C@@H](C)O)[C@@H](C)CC)[C@@H](C)O)C(=O)N[C@H]1CSSC[C@@H](C(=O)O)NC(=O)[C@H](CCCCN)NC(=O)[C@H](CCCCN)NC(=O)[C@H](Cc2ccccc2)NC(=O)CNC(=O)[C@H](CCCCN)NC1=O [FIGPVLKMATSILPTAICKGFKKC] |  |  |  |  |  |  |  |  |  |  |  | MIC [4]: 1.95 µM (≈ 5 µg/mL); MIC [5]: 1.95 µM (≈ 5 µg/mL); MIC (Bacillus subtilis): 7.79 µM (≈ 20 µg/mL); MIC [6]: 3.9 µM (≈ 9.99 µg/mL); MIC [7]: 3.9 µM (≈ 9.99 µg/mL); MIC (Escherichia coli ML-35p): 19.5 µM (≈ 50 µg/mL); MIC [8]: 3.9 µM (≈ 9.99 µg/mL)
3 | CC[C@H](C)[C@H](NC(=O)[C@H](CC(C)C)NC(=O)[C@H](CO)NC(=O)[C@@H](NC(=O)[C@H](CC(C)C)NC(=O)[C@H](C)NC(=O)[C@@H]1CCCN1C(=O)[C@@H](NC(=O)[C@H](CC(C)C)NC(=O)[C@H](Cc1ccccc1)NC(=O)[C@@H]1CCCN1C(=O)[C@H](CC(C)C)NC(=O)[C@@H](N)Cc1ccccc1)[C@@H](C)CC)[C@@H](C)O)C(=O)N[C@@H](CO)C(=O)N[C@@H](CO)C(=O)N[C@@H](CC(C)C)C(N)=O [FLPFLIPALTSLISSL] |  | ≥ 150 | ≥ 50 |  |  |  |  |  |  |  |  | 
4 | CC[C@H](C)[C@H](NC(=O)[C@@H](NC(=O)[C@H](C)NC(=O)[C@H](Cc1ccccc1)NC(=O)[C@H](CC(C)C)NC(=O)CN)C(C)C)C(=O)N[C@@H](CCCCN)C(=O)N[C@@H](CCCCN)C(=O)N[C@H](C(=O)N[C@@H](C)C(=O)N[C@@H](CO)C(=O)N[C@H](C(=O)N[C@H](C(=O)N[C@@H](CCCCN)C(=O)NCC(=O)N[C@@H](CC(C)C)C(N)=O)[C@@H](C)CC)C(C)C)C(C)C [GLFAVIKKVASVIKGL] | 7.3 (≈ 12 µg/mL) |  |  | 7.3 (≈ 12 µg/mL) | 3.65 (≈ 6 µg/mL) | 15.2 (≈ 25 µg/mL) | 1.83 (≈ 3 µg/mL) | ≥ 60.9 | 30.4 (≈ 50 µg/mL) | 3.65 (≈ 6 µg/mL) | 15.2 (≈ 25 µg/mL) | 
5 | CC[C@H](C)[C@H](NC(=O)[C@H](CC(=O)O)NC(=O)[C@H](Cc1ccccc1)NC(=O)[C@H](CC(C)C)NC(=O)CN)C(=O)N[C@H](C(=O)N[C@@H](CCCCN)C(=O)N[C@@H](CCCCN)C(=O)N[C@H](C(=O)N[C@@H](C)C(=O)N[C@@H](CO)C(=O)N[C@H](C(=O)N[C@H](C(=O)NCC(=O)NCC(=O)N[C@@H](CC(C)C)C(N)=O)C(C)C)C(C)C)C(C)C)[C@@H](C)CC [GLFDIIKKVASVVGGL] | 15.5 (≈ 25 µg/mL) |  |  | ≥ 61.9 | 7.43 (≈ 12 µg/mL) | 7.43 (≈ 12 µg/mL) | 1.86 (≈ 3 µg/mL) | ≥ 61.9 | > 61.9 | 15.5 (≈ 25 µg/mL) | 15.5 (≈ 25 µg/mL) | 
6 | CC[C@H](C)[C@H](NC(=O)[C@@H](NC(=O)[C@H](CC(=O)O)NC(=O)[C@H](Cc1ccccc1)NC(=O)[C@H](CC(C)C)NC(=O)CN)C(C)C)C(=O)N[C@@H](C)C(=O)N[C@@H](CCCCN)C(=O)N[C@H](C(=O)N[C@@H](C)C(=O)N[C@@H](CO)C(=O)N[C@H](C(=O)N[C@H](C(=O)N[C@@H](CCCCN)C(=O)N[C@@H](CCCCN)C(=O)N[C@@H](CC(C)C)C(N)=O)[C@@H](C)CC)C(C)C)C(C)C [GLFDVIAKVASVIKKL] | 3.53 (≈ 6 µg/mL) |  |  | 14.7 (≈ 25 µg/mL) | 7.05 (≈ 12 µg/mL) | 7.05 (≈ 12 µg/mL) | 3.53 (≈ 6 µg/mL) | ≥ 58.8 | 29.4 (≈ 50 µg/mL) | 3.53 (≈ 6 µg/mL) | 7.05 (≈ 12 µg/mL) | 
7 | CC[C@H](C)[C@H](NC(=O)[C@H](C)NC(=O)[C@H](C)NC(=O)[C@H](CC(C)C)NC(=O)[C@@H](NC(=O)[C@H](CCCCN)NC(=O)[C@H](CCCNC(=N)N)NC(=O)[C@@H]1CCCN1C(=O)[C@H](CC(C)C)NC(=O)CN)[C@@H](C)CC)C(=O)N[C@@H](C)C(=O)N[C@@H](CCCCN)C(=O)N[C@@H](CCCCN)C(=O)N[C@@H](CCCCN)C(=O)NCC(=O)N[C@@H](CCCCN)C(=O)N[C@H]1CSSC[C@@H](C(=O)O)NC(=O)[C@H](CCCCN)NC(=O)[C@H](C)NC(=O)[C@H](C(C)C)NC(=O)[C@H](CC(C)C)NC(=O)[C@H](CCCCN)NC(=O)[C@H](CC(C)C)NC(=O)[C@@H]2CCCN2C(=O)CNC(=O)[C@H](CCCCN)NC1=O [GLPRKILAAIAKKKGKCKGPLKLVAKC] | > 100 |  |  |  |  |  |  |  |  |  |  | MIC (Pseudomonas aeruginosa): > 100 µM; MIC (Bacillus subtilis): 4.2 µM (≈ 11.9 µg/mL); MIC (Escherichia coli B): ≥ 100 µM; MIC [1]: ≥ 50 µM

More lines, main results first:

Row | MIC (Staphylococcus aureus) [µM] | MIC [2] [µM] | MIC [3] [µM] | MIC (Listeria innocua) [µM] | MIC (Micrococcus luteus) [µM] | MIC (Streptococcus uberis) [µM] | MIC (Leuconostoc lactis) [µM] | MIC (Pasteurella multocida) [µM] | MIC (Escherichia coli) [µM] | MIC [10] [µM] | MIC (Bacillus cereus) [µM] | SMILES | other results
8 |  | ≥ 120 | 16 (≈ 32.4 µg/mL) |  |  |  |  |  |  |  |  | CC[C@H](C)[C@H](NC(=O)[C@H](C)NC(=O)CNC(=O)[C@H](Cc1ccccc1)NC(=O)[C@@H](N)Cc1ccccc1)C(=O)N[C@@H](C)C(=O)N[C@@H](C)C(=O)N[C@@H](C)C(=O)N[C@@H](CC(C)C)C(=O)N1CCC[C@H]1C(=O)N[C@@H](Cc1cnc[nH]1)C(=O)N[C@H](C(=O)N[C@H](C(=O)N[C@@H](CO)C(=O)N[C@@H](C)C(=O)N[C@H](C(=O)N[C@@H](CCCCN)C(=O)N[C@@H](CC(N)=O)C(=O)N[C@@H](C)C(=O)N[C@@H](CC(C)C)C(=O)O)[C@@H](C)CC)[C@@H](C)CC)C(C)C [FFGAIAAALPHVISAIKNAL] | 
9 |  | ≥ 160 | ≥ 120 |  |  |  |  |  |  |  |  | CC[C@H](C)[C@H](NC(=O)[C@H](CO)NC(=O)CNC(=O)CNC(=O)[C@@H](NC(=O)[C@H](CC(C)C)NC(=O)[C@H](CO)NC(=O)[C@@H]1CCCN1C(=O)[C@@H](NC(=O)[C@H](CC(C)C)NC(=O)[C@H](CO)NC(=O)[C@H](CC(C)C)NC(=O)[C@@H](N)Cc1ccccc1)[C@@H](C)CC)C(C)C)C(=O)N[C@@H](CO)C(=O)N[C@@H](C)C(=O)N[C@@H](Cc1ccccc1)C(=O)N[C@@H](CCCCN)C(=O)O [FLSLIPSLVGGSISAFK] | MIC [9]: ≥ 160 µM
10 | 28.8 (≈ 50 µg/mL) |  |  | ≥ 57.5 | ≥ 57.5 | ≥ 57.5 | 6.9 (≈ 12 µg/mL) | ≥ 57.5 | > 57.5 | ≥ 57.5 | ≥ 57.5 | CC[C@H](C)[C@H](NC(=O)[C@H](CO)NC(=O)CNC(=O)[C@H](C)NC(=O)[C@@H](NC(=O)[C@H](Cc1cnc[nH]1)NC(=O)CNC(=O)[C@H](C)NC(=O)[C@@H](NC(=O)[C@H](CCCCN)NC(=O)[C@H](CCCCN)NC(=O)[C@@H](NC(=O)[C@@H](NC(=O)[C@H](CC(=O)O)NC(=O)[C@H](Cc1ccccc1)NC(=O)[C@H](CC(C)C)NC(=O)CN)[C@@H](C)CC)C(C)C)[C@@H](C)CC)[C@@H](C)CC)C(N)=O [GLFDIVKKIAGHIAGSI] | 
11 |  | 8.55 (≈ 16 µg/mL) | 4.28 (≈ 8 µg/mL) |  |  |  |  |  |  |  |  | CC[C@H](C)[C@H](NC(=O)CNC(=O)[C@@H]1CCCN1C(=O)[C@H](CC(C)C)NC(=O)[C@H](C)NC(=O)[C@H](CC(N)=O)NC(=O)[C@H](CCCCN)NC(=O)[C@H](Cc1ccccc1)NC(=O)[C@H](C)NC(=O)[C@H](CO)NC(=O)[C@H](CC(C)C)NC(=O)[C@@H](NC(=O)CN)C(C)C)C(=O)N[C@@H](CCSC)C(=O)N[C@@H](CCCCN)C(=O)N[C@H](C(=O)N[C@H](C(=O)N[C@H](C(N)=O)C(C)C)[C@@H](C)CC)[C@@H](C)CC [GVLSAFKNALPGIMKIIV] | MIC [9]: ≥ 34.2 µM
